US20100261666A1, “COMPOSITIONS AND METHODS FOR THE TREATMENT OF MYOCARDIAL DYSFUNCTION ASSOCIATED WITH SIRS OR SEPSIS” (THE BOARD OF TRUSTEES OF THE UNIVERSITY OF ILLINOIS, priority 2009, published 2010)
Read-outs that look alike come from different tables or passages of the source.

Columns and labels:
adenosine deaminase = adenosine deaminase (Rattus norvegicus, UniProt Q920P6); details: LV tissue homogenates at 150 minute time point
Procedure: Assays were performed according to the manufacturer's instructions.

TNF-α = assay: Real time PCR, left ventricular TNF-α mRNA expression; type: in vivo, rat; details: LPS infusion
Procedure: Total RNA was isolated from left ventricular tissue using the SV Total Isolation System (Promega Corp., Madison, Wis.). Isolation was performed according to manufacturer instructions and followed by DNAse treatment to eliminate residual genomic DNA contamination. RNA integrity was determined by loading 1.0 μg of total RNA isolate from each sample onto a 1.0% agarose gel and staining with ethidium bromide to visualize the 18 and 28s RNA bands. The amount of RNA recovered was determined using the Ribogreen RNA Quantification Kit (Molecular Probes, Eugene, Oreg.). […]
Specific primer sequences, GenBank accession numbers, Sequence Identifiers, and product sizes are disclosed in Table 5. […] For real-time PCRs, SYBR PCR Master Mix (Bio-Rad Laboratories, Hercules, Calif.) was used, and thermocycling and fluorescence detection was performed using a Stratagene Mx3000p real-time PCR machine.
After confirmation of primer efficiency and specificity, the concentrations of purified products generated by standard PCR were determined using Molecular Probe's Picogreen DNA quantification kit, and PCR products were serially diluted to obtain standards containing 10^1, 10^2, 10^3, 10^4, 10^5, and 10^6 copies of synthetic template. […]

ADA1 = assay: Real time PCR, left ventricular ADA1 mRNA expression; type: in vivo, rat
Procedure: Total RNA was isolated from left ventricular tissue using the SV Total Isolation System (Promega Corp., Madison, Wis.). Isolation was performed according to manufacturer instructions and followed by DNAse treatment to eliminate residual genomic DNA contamination. RNA integrity was determined by loading 1.0 μg of total RNA isolate from each sample onto a 1.0% agarose gel and staining with ethidium bromide to visualize the 18 and 28s RNA bands. The amount of RNA recovered was determined using the Ribogreen RNA Quantification Kit (Molecular Probes, Eugene, Oreg.). 1 μg of total RNA was reverse transcribed in a […] using random hexamer primers with enzyme and buffers supplied in the cDNA First Strand Synthesis kit (MRI Fermentas, Hanover, Md.). First strand cDNA was treated with ribonuclease H to remove residual RNA.
Real time PCR (qPCR) was performed to measure RNA transcripts for left ventricular TNF-α and ADA1. Three housekeeping genes were selected as follows to produce an intergroup correction factor for target transcripts: Cyclophilin A, hypoxanthine-guanine physphoribosyltransferase (HPRT), and β-actin. Primers were selected using Primer 3 software (Rosen and Skaletsky, Whitehead Institute for Biomedical Research) with the rat genomic sequences for TNF gene, ADA gene, HPRT gene, β-actin gene, and Cyclophilin gene as templates. BLAST (National Center for Biotechnology Information) searches were used to verify that the selected primers were specific for the designated target.
Specific primer sequences, GenBank accession numbers, Sequence Identifiers, and product sizes are disclosed in Table 5. Primers were used in a standard PCR with the 2× Master Mix PCR reagent (MRI Fermentas) and cDNA from the tissue of interest as a template. The thermocycling profile consisted of one cycle of 95° C. for 10 minutes, followed by 41 cycles of 95° C. for 1 minute, 61° C. for 1 minute, and 72° C. for 1 minute and a final cycle of 72° C. for 10 minutes. Products were run on a 1.0% agarose gel and stained with ethidium bromide to confirm that only one band was amplified and that no primer dimers were present. PCR products were then column-purified (QIAGEN, Valencia, Calif.) and sequenced to confirm target specificity. For real-time PCRs, SYBR PCR Master Mix (Bio-Rad Laboratories, Hercules, Calif.) was used, and thermocycling and fluorescence detection was performed using a Stratagene Mx3000p real-time PCR machine.
Standards were then amplified by real-time PCR, and standard curves were generated using Stratagene Mx3000P software. […]
A housekeeping gene was selected for normalization of the real-time PCR data for the TNF-α and ADA1 transcripts. Three potential gene (mRNA) products were analyzed for this purpose: CYC, β-actin and HPRT.

rat isolated hearts = assay: Langendorff rat isolated heart procedure: left ventricular function and coronary flow; type: in vivo; details: for Coronary flow Baseline / Coronary flow 30 min / Coronary flow 60 min / Coronary flow 90 min / Coronary flow 120 min / Coronary flow 150 min: mean ± SEM
Procedure: Male Sprague Dawley, virus-free rats (Harlan) were used in each of the examples presented herein. After arrival and a brief acclimation (72 hours minimum), animals were randomized into control or experimental groups. The control and experimental protocols (Table 1) and experimental group treatments (Table 2) are described below.
Rat isolated heart experiments were performed via Langendorff method. […] CON hearts received vehicle (IP sterile water). […] Heparin was allowed to circulate for 60 seconds at which time a thoracotomy was performed to expose the heart. The heart was quickly removed, placed in ice cold Krebs-Ringers bicarbonate buffer (KRB, described below) and weighed. The ascending aorta was rapidly cannulated and the heart was attached, via the cannula, to the perfusion apparatus. The hearts were perfused with a modified KRB containing (102 mM NaCl, 4.75 mM KCl, 1.20 mM KH2PO4, 1.18 mM MgSO4, 22.75 mM NaHCO3, 11.50 mM Glucose, 4.96 mM Na-Pyruvate, 5.40 mM Na-Fumarate and 1 mM CaCl2), at a temperature of 37.0° C., and pH 7.4 as maintained by vigorous bubbling with 95%/5% O2/CO2.
At all times, hearts were perfused with KRB at a pressure of 72-78 mmHg set by the height of the water-jacketed reservoir. The left atrium of the heart was then removed, just above the left atrio-ventricular valve. A latex balloon was used to measure left ventricular pressure as an index of cardiac performance. The balloon was constructed by filling the reservoir tip of a latex condom with degassed water. PE-50 tubing, pre-filled with degassed water and attached to a stopcock/Hamilton screw-top syringe assembly, was flanged and placed into the tip of the condom. Surgical silk (5-0) was used to gather the condom tip around the flanged end of the tubing and form a seal, at which time the excess latex was removed.
The balloon/stopcock assembly was attached to a pressure transducer (Spectramed-Statham) and inserted into the left ventricle to record cardiac performance data via Windaq (DATAQ, CA). Two platinum electrodes, connected to a electrical stimulator (Grass Model 92C), were placed at the lateral edges of the right atria in order to pace the heart at 300 BPM using a voltage 10% greater than that required to capture rhythm. The volume in the latex balloon was increased to produce a left ventricular diastolic pressure (LVdiaP) of 10.0 mmHg.
The heart was then perfused normally for 30 minutes, a period designated as the equilibration phase. During this phase of perfusion hearts had to maintain a LVdiaP of 10.0±2.0 mmHg to be included in the study. At the end of thirty minutes, baseline measurements of coronary flow and left ventricular pressure were made. This time point was designated as 0 minutes. At this time, hearts receiving LPS (10 μg/mL/min) were infused via injection port/stop cock assembly, into the KRB perfusion stream, just above the aortic cannula for a total infusion time of 60 minutes. Hearts not receiving LPS were infused with vehicle (sterile water, 1.25% coronary flow (mL)·min). At 60 minutes, infusion was halted and normal KRB perfusion continued for 90 minutes (total experimental time post-equilibration=150 minutes).
Measurements of coronary flow and left ventricular pressure were taken every 30 minutes starting at 0 minutes. At the termination of the experiment, the left ventricle was rapidly excised from the whole heart, flash frozen in liquid nitrogen and stored at −80.0° C. for further analysis.
Statistical analysis was performed on data generated from these experimental protocols using a one-way analysis of variance (one-way ANOVA) with pair wise comparisons (Fisher Least Significant Difference test (LSD)). Data is presented herein as mean±standard error of the mean (SEM).
The Fisher LSD was used to determine whether 30 and 150 min values differed from baseline values. In addition, changes from baseline values (e.g., 30 or 150 minute value−respective baseline value) were compared among groups.

ADA = ADA (Homo sapiens, UniProt P00813); details: cited from earlier work
[1] = LPS infusion, 30 minutes, change from baseline, mean±SEM

Chain of adenosine deaminase (Q920P6 whole entry): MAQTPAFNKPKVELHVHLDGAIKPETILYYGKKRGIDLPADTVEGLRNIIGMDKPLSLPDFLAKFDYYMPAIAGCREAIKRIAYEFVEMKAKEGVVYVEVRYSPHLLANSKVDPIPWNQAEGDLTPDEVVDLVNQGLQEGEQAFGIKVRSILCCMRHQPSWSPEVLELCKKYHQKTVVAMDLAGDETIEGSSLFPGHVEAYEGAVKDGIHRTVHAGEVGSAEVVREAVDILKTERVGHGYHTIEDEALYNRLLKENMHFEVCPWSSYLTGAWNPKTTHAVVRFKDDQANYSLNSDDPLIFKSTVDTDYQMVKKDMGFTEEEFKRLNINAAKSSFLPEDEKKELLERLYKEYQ
Chain of ADA (P00813 whole entry, species assumed, the tested form may be a part): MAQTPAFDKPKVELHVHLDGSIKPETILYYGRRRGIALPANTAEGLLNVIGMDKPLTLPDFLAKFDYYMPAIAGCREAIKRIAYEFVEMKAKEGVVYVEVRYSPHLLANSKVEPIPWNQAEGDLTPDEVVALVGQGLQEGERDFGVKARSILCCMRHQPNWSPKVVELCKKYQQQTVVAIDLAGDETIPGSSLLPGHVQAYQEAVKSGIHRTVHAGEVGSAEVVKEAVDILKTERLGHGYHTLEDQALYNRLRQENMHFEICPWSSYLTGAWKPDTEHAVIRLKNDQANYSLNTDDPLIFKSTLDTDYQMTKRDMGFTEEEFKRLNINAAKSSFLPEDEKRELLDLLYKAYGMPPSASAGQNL

For OC[C@H]1O[C@@H](n2cnc3c2N=CNCC3O)CC1O (stereo in doubt) [dCF, 2′-deoxycoformycin], the “LV ADA activity compared to CON and LPS hearts” value (adenosine deaminase; LPS infusion) was “significant decrease”, the “LV ADA activity compared to CON and LPS hearts” value (adenosine deaminase; vehicle infusion) was “significant decrease” and the “left ventricular TNF-α mRNA expression compared to LPS hearts” value (TNF-α) was “did not significantly alter”. The “left ventricular ADA1 mRNA expression (copy numbers) compared to CON and LPS hearts” value (ADA1; LPS infusion) was “significantly lower”, the “left ventricular ADA1 mRNA expression (copy numbers) compared to CON and LPS hearts” value (ADA1; vehicle infusion) was “significantly lower” and the “Coronary flow Baseline” value (rat isolated hearts; LPS infusion 10 μg/mL/min (-LPS group)) was 27.4 ± 1.7 mL/min. For the same molecule, the “Coronary flow 30 min” value (rat isolated hearts; LPS infusion (-LPS group)) was 28.7 ± 1.2 mL/min, the “Coronary flow 60 min” value (rat isolated hearts; LPS infusion (-LPS group)) was 27.8 ± 1.2 mL/min and the “Coronary flow 90 min” value (rat isolated hearts; LPS infusion (-LPS group)) was 25.7 ± 1.0 mL/min. The “Coronary flow 120 min” value (rat isolated hearts; LPS infusion (-LPS group)) was 22.4 ± 1.1 mL/min, the “Coronary flow 150 min” value (rat isolated hearts; LPS infusion (-LPS group)) was 19.6 ± 0.8 mL/min and the “+dP/dt compared to respective baseline” value (rat isolated hearts; LPS infusion, 30 minutes) was “significantly greater”. The “LV developed pressure compared to respective baseline” value (rat isolated hearts; LPS infusion, 30 minutes) was “significantly increased”, the “LV diastolic pressure compared to respective baseline” value (rat isolated hearts; LPS infusion, 30 minutes) was “significantly lower” and the “LV systolic pressure compared to respective baseline” value (rat isolated hearts; LPS infusion, 30 minutes) was “significantly greater”. For the same molecule, the “increase in LV developed pressure compared to LPS group” value (rat isolated hearts; LPS infusion, 30 minutes) was “similar”, the “increase in LV systolic pressure compared to LPS group” value (rat isolated hearts; LPS infusion, 30 minutes) was “similar” and the “increase in −dP/dt compared to LPS group” value (rat isolated hearts; LPS infusion, 30 minutes) was “similar”. The “−dP/dt compared to respective baseline” value (rat isolated hearts; LPS infusion, 30 minutes) was “significantly greater”, the “increase in LV developed pressure” value (rat isolated hearts; [1]) was 20.1±3.2 mmHg and the “increase in LV systolic pressure” value (rat isolated hearts; [1]) was 17.1±3.0 mmHg. The “+dP/dt compared to CON” value (rat isolated hearts; LPS infusion, 150 minutes) was “No differences”, the “+dP/dt compared to LPS hearts” value (rat isolated hearts; LPS infusion, 150 minutes) was “improved” and the “LV developed pressure compared to CON” value (rat isolated hearts; LPS infusion, 150 minutes) was “No differences”. The “LV developed pressure compared to LPS hearts” value (rat isolated hearts; LPS infusion, 150 minutes) was “improved”, the “LV developed pressure compared to respective baseline” value (rat isolated hearts; LPS infusion, 150 minutes) was “not significantly different” and the “LV diastolic pressure (LPS-induced increase) compared to LPS hearts” value (rat isolated hearts; LPS infusion, 150 minutes) was “improved”. The “LV systolic pressure compared to LPS group / among groups” value (rat isolated hearts; LPS infusion, 150 minutes) was “no significant differences”, the “−dP/dt compared to LPS alone / among groups” value (rat isolated hearts; LPS infusion, 150 minutes) was “No significant differences” and the “−dP/dt compared to respective baseline” value (rat isolated hearts; LPS infusion, 150 minutes) was “significantly lower”. The “Coronary flow 30 min” value (rat isolated hearts; vehicle infusion (-CON group)) was 27.7 ± 1.9 mL/min, the “Coronary flow 60 min” value (rat isolated hearts; vehicle infusion (-CON group)) was 26.3 ± 2.1 mL/min and the “Coronary flow 90 min” value (rat isolated hearts; vehicle infusion (-CON group)) was 24.5 ± 1.8 mL/min. For the same molecule, the “Coronary flow 120 min” value (rat isolated hearts; vehicle infusion (-CON group)) was 21.5 ± 1.9 mL/min, the “Coronary flow 150 min” value (rat isolated hearts; vehicle infusion (-CON group)) was 19.8 ± 2.0 mL/min and the “Coronary flow Baseline” value (rat isolated hearts; vehicle infusion (-CON group)) was 28.1 ± 1.9 mL/min. The “+dP/dt compared to respective baseline” value (rat isolated hearts; vehicle infusion, 30 minutes) was “no differences”, the “LV diastolic pressure compared to respective baseline” value (rat isolated hearts; vehicle infusion, 30 minutes) was “significantly lower” and the “−dP/dt compared to respective baseline” value (rat isolated hearts; vehicle infusion, 30 minutes) was “no differences”. The “LV developed pressure compared to respective baseline” value (rat isolated hearts; vehicle infusion, 150 minutes) was “not significantly different”, the “−dP/dt compared to respective baseline” value (rat isolated hearts; vehicle infusion, 150 minutes) was “significantly lower” and the “binding between dCF and ADA” value (ADA) was “effectively irreversible”.
